Like-named read-outs stand apart in the source and are kept apart here.
Assays:
OVCAR-3 cells = assay: Cytotoxic activity, MTT assay, OVCAR-3; format: cell-based; details: Homo sapiens, OVCAR-3, 72 h, read-out: IC50 OVCAR-3
Description: (§1) The cancer cell lines used in this study were HCT116 (colorectal carcinoma), IGROV1 (ovarian cancer), OVCAR3 (ovarian cancer), and MCF7 (mammary gland/breast cancer). […] Cell lines were maintained in culture and were incubated at 37 °C in an incubator with 5% CO2 in a humidified atmosphere. All tests were established at 80% of confluence, and viability was estimated with a trypan blue exclusion assay.
(§2) The cytotoxic activities of molecules against cancer cell lines were evaluated using an MTT assay. The MTT colorimetric assay was performed using 96-well plates. Cells were seeded in a 96-well plate, at a concentration of 10 × 10^3 cells/well for HCT116 and 12 × 10^3 cells/well for MCF7, IGROV1, and OVAR. Adherent cells were dispatched and incubated at 37 °C overnight in a 5% CO2-enriched atmosphere. […] After that, the medium was removed, and cells were treated with 50 µL of 3-(4,5-dimethylthazolk-2-yl)-2,5-diphenyl tetrazolium bromide (MTT) solution (3 mg/mL in PBS) at 37 °C for 20 to 40 min. To dissolve the […], we added 80 µL of 100% DMSO. Optical density was measured at 540 nm. All tests were established in triplicate. […]

MCF7 cells = assay: Cytotoxic activity, MTT assay, MCF7; format: cell-based, human
Description: Optical density was measured at 540 nm. All tests were established in triplicate.

[1] = biological target: T1, acetylcholinesterase (AChE) (Homo sapiens, UniProt P22303); format: biochemical; details: at 100 µM
SKOV-3 cells = assay: Cytotoxic activity, MTT assay, SKOV-3; format: cell-based, human
HCT116 cells = assay: Cytotoxic activity, MTT assay, HCT116; format: cell-based, human; details: Homo sapiens, HCT-116, 72 h, read-out: IC50 HCT116, MTT, 72 h
Description: as §1, §2

α-amylase = biological target: T2, α-amylase (Homo sapiens, UniProt P04746); assay: Anti-α-amylase activity (starch/DNS); details: for Anti α-Amylase %: at 100 µM
T2 sequence (P04746 16-511): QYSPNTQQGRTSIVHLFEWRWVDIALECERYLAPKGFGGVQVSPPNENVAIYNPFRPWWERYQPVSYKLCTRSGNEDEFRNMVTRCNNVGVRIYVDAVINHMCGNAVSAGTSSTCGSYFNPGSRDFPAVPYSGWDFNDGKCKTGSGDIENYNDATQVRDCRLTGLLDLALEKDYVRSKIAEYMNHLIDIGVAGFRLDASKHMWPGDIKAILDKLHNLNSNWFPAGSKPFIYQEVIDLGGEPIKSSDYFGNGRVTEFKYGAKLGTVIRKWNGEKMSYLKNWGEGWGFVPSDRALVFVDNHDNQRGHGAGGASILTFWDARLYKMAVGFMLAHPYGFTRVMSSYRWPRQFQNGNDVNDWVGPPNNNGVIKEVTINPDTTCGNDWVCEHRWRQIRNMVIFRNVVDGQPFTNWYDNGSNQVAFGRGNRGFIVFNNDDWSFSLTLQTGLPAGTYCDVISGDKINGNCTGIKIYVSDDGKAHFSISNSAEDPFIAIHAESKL
Description: The α-amylase inhibitory activity (%) value was defined as the percentage decrease in the maltose production rate over the control. […] After 15 min, this mixture was removed from the water bath and diluted with 900 µL of distilled water. The anti-α-amylase activity was determined by measuring the absorbance at 540 nm. Blank incubations were determined as the absorbance produced by samples where the enzyme was replaced with a buffer solution. […] The IC50 values were calculated from the mean values of the percentage of α--amylase inhibition data, determined in triplicate.

xanthine oxidase (XOD) [2] = biological target: T3, xanthine oxidase (XOD) (Homo sapiens, UniProt P47989); assay: biochemical; details: read-out: Anti XOD IC50
Description: Anti-xanthine oxidase activity was assayed spectrophotometrically under aerobic conditions. First, 50 µL (50 µg/mL) of samples were added to 60 µL of phosphate buffer (pH 7.5) and 30 µL of xanthine oxidase enzyme solution (0.01 units/mL in phosphate buffer; pH 7.5). After pre-incubation at 25 °C for 15 min, the reaction was initiated by the addition of 60 µL of xanthine substrate solution (prepared in the same buffer). The assay mixture was incubated at 25 °C for 5 min. […] The assay was performed in triplicate. […] Tests were carried out in triplicate.

[3] = biological target: T1, acetylcholinesterase (AChE); assay: biochemical
Description: The enzymatic activity was assessed via a modified colorimetric Ellman′s method. First, 50 µL of Tris-HCl buffer (pH 8), 25µL of a buffer solution of the sample (50 µg/mL), and 25 µL of an acetylcholinesterase (AChE) enzyme solution containing 2.8 U/mL were mixed. A reaction was then initiated via the addition of 125 µL of 3 mM […]. After incubation for 15 min at 25 °C, 25 µL of a solution of iodide acetylthiocholine15 mM was added to a 96-well microplate. […] Inhibition (%) was calculated in the following way: Inhibition (%) = [(A control − A sample)/A control] × 100, where (A sample) is the absorbance of the molecule containing the reaction and (A control) is the absorbance of the reaction control. Tests were carried out in triplicate.

[4] = DPPH radical scavenging assay
Description: DPPH• (1-1-diphenyl 2-picryl hydrazyl) assay
This method is based on the spectrophotometric assay using the stable radical, DPPH•, as a reagent. First, 20 µL of each sample (4 mg/mL) was mixed with 180 µL of 0.1 mM DPPH• in methanol, in plates, after an incubation of 25 min in the dark. Absorbance was measured at 517 nm. Ascorbic acid was used as the reference compound. The radical-scavenging activities of molecules, expressed as a percentage inhibition of DPPH•, were calculated according to the following formula: Inhibition (%) = [(A control − A sample)/A control] × 100 where A is the absorbance determined at 517 nm. The absorbance of the solvent and DPPH• radical without the molecule was measured as the control.

[5] = ABTS radical cation scavenging assay; details: for ABTS Assay %: at 100 µM
Description: ABTS (2,2′-azinobis-3-ethylbenzothiazoline-6-sulfonate) assay
The radical scavenging capacity of antioxidants for the ABTS radical cation was evaluated following this method: ABTS was prepared by adding 7 mM solution of ABTS at pH 7.4 (5 mM NaH2PO4, 5 mM Na2HPO4, and 154 mM NaCl) with 2.5 mM potassium persulfate. The mixture was stored at room temperature for 16 h in the dark before use and prepared […]. Once diluted with persulfate buffer, the absorbance of the mixture yielded an absorbance value of 0.70 ± 0.05 units at 734 nm. Then, 20 µL of each tested sample was mixed with fresh ABTS solution (180 µL), then the absorbance was measured 6 min after the initial mixing. Ascorbic acid was used as a standard. The capacity of free radical scavenging was expressed as a percentage of the inhibition values. The percentage of inhibition is calculated using the same expression employed in the DPPH assay.

[6] = biological target: T4, superoxide dismutase (SOD) (Homo sapiens, UniProt P00441); assay: biochemical; details: read-out: Anti SOD IC50
Description: Pyrogallol auto-oxidation due to oxygen in the air can be inhibited by an enzyme that is naturally present in the body: superoxide dismutase (SOD). Furthermore, variations in the pyrogallol auto-oxidation rate in the presence of SOD were evaluated. Tests were carried out in triplicate. The objective was to find an inhibitor of the auto-oxidation of pyrogallol in the presence of a SOD enzyme solution. Samples were tested at a concentration of 50 µg/mL, followed by incubation for 4 min at 25 °C. […] The self-oxidation of pyrogallol was evaluated in the absence of the enzyme. For this, 30 µL of pyrogallol was added to 120 µL of tris buffer (in place of the SOD) (pH 8.5), then followed by the same steps of incubating a positive control (without the molecule); this was performed in the presence of 5% of DMSO to evaluate the percentage of SOD inhibition activity on the auto-oxidation of pyrogallol.

[7] = biological target: T4, superoxide dismutase (SOD); format: biochemical; details: at 100 µM
xanthine oxidase (XOD) [8] = biological target: T3, xanthine oxidase (XOD); format: biochemical; details: at 100 µM
[9] = Homo sapiens, SK-OV-3, 72 h, read-out: IC50 SKOV-3, MTT, 72 h
[10] = read-out: IC50 SKOV-3, MTT, 72 h

T4 sequence (P00441 whole entry): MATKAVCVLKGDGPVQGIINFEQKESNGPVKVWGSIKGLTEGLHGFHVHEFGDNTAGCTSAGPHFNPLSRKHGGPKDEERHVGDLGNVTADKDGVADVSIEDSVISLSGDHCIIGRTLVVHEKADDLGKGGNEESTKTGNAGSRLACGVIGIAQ
T1 sequence (P22303 32-614, species assumed): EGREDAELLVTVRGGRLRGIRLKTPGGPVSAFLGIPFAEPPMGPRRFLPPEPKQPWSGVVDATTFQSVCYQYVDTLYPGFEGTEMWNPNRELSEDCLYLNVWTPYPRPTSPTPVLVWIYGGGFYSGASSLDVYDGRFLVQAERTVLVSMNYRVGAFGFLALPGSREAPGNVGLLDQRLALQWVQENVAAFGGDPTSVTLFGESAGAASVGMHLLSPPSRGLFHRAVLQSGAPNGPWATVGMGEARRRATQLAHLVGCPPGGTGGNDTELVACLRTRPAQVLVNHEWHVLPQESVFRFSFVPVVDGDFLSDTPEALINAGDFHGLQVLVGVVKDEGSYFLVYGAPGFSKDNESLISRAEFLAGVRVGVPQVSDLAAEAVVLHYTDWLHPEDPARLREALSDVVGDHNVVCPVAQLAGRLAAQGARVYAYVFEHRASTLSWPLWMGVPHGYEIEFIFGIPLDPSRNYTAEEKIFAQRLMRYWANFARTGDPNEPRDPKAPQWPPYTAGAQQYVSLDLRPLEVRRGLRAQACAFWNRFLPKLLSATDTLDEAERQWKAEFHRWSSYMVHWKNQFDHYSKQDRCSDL
T3 sequence (P47989 whole entry, species assumed): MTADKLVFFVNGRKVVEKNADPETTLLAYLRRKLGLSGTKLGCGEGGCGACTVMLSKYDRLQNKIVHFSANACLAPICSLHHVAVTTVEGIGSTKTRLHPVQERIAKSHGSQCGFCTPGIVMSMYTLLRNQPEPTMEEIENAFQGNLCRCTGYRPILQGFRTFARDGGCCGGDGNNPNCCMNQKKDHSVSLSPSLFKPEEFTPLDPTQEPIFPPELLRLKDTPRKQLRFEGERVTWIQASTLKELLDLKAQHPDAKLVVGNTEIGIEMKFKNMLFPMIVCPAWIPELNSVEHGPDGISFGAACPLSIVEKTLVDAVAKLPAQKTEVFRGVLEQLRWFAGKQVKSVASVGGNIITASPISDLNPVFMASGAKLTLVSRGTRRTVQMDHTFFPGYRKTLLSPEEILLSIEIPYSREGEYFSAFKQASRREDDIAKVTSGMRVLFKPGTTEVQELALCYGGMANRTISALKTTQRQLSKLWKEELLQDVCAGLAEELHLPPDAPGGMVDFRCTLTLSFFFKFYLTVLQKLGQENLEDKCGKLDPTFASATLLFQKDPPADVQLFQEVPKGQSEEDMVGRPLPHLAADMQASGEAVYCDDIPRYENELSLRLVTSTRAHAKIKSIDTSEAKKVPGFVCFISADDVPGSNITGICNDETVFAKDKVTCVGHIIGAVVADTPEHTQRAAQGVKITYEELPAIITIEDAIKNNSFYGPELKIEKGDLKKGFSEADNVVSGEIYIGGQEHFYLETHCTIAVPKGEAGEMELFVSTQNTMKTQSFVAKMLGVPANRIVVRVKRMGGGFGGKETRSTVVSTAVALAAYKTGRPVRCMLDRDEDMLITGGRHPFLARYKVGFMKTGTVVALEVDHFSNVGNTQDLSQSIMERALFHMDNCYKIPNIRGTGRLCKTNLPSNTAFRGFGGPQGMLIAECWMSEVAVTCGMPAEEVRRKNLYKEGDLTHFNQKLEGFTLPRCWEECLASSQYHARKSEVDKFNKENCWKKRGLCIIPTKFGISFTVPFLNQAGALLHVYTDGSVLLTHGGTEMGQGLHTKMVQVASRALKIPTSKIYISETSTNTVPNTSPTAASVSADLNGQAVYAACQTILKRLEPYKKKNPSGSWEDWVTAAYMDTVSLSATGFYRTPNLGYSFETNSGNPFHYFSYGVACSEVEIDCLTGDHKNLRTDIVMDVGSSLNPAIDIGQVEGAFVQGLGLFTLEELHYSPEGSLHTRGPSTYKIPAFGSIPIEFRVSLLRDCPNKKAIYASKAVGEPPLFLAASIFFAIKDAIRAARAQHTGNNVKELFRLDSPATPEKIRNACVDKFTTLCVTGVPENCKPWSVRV

Structure (SMILES) | IC50 (OVCAR-3 cells) | IC50 (MCF7 cells; Homo sapiens, MCF7, 72 h) | Anti ACHE % [1] | IC50 (SKOV-3 cells; [9]) | IC50 (HCT116 cells) | IC50 (α-amylase) | Anti α-Amylase % (α-amylase) | IC50 (xanthine oxidase (XOD) [2]) | IC50 [3] | IC50 [4] | IC50 [5] | IC50 [6] | Anti SOD % [7] | Anti XOD % (xanthine oxidase (XOD) [8]) | IC50 ([3]; read-out: Anti ACHE IC50) | ABTS Assay % [5] | IC50 (SKOV-3 cells; [10]) | IC50 (MCF7 cells; 72 h)
CC1OC(OCC2OC(Oc3c(-c4ccc(OCCO)c(OCCO)c4)oc4cc(OCCO)cc(O)c4c3=O)C(O)C(O)C2O)C(O)C(O)C1O (centres unmarked) [Molecule M6, trihydroxyethylrutin] | > 50 µM | > 50 µM | 33.7 ± 3.7% | > 50 µM | > 50 µM | > 100 µM | 49.4 ± 5.1% | > 100 µM | > 100 µM | > 100 µM | 24.5 ± 0.1 µM | > 50 µM | 53.7 ± 2.1% |  |  |  |  | 
O=c1cc(-c2cccc(O)c2)oc2c1ccc1ccccc12 [Molecule M10, 3′-hydroxy-a-naphthoflavone] | > 50 µM | > 50 µM | 54.7 ± 1.9% | > 50 µM | > 50 µM | 2.3 ± 0.1 µM | 69.4 ± 1.6% | > 50 µM |  | > 100 µM | > 100 µM | > 100 µM | 39.4 ± 1.9% | 58.8 ± 0.3% | > 50 µM | 11.0 ± 1.0% |  | 
COc1cccc(-c2cc(=O)c3c(O)cccc3o2)c1 [Molecule M11, 5-hydroxy-3′-methoxyflavone] | > 50 µM | > 100 µM | 52.6 ± 4.2% | > 100 µM | > 50 µM | 8.3 ± 0.2 µM | 124.8 ± 15.3% | > 100 µM |  | > 100 µM | > 100 µM | > 100 µM | 9.4 ± 3.1% |  | > 50 µM | 17.7 ± 0.7% | > 50 µM | 
COc1cc(O)c2c(=O)cc(-c3ccc(O)cc3)oc2c1 [Molecule M12, 4′,5-dihydroxy-7-methoxyflavone] | 47 ± 1.4 µM | > 50 µM | 51.0 ± 0.3% | 44.7 ± 1.2 µM | 38.5 ± 1.2 µM | 9 ± 0.1 µM | 111.7 ± 0.8% | 1.2 ± 0.1 µM | > 50 µM | > 100 µM | > 100 µM | > 100 µM | 42.1 ± 5.3% | 58.2 ± 3.1% |  | 30.3 ± 0.6% |  | 
O=c1cc(-c2cccc(O)c2)oc2cccc(O)c12 [Molecule M14, 5,3′-dihydroxyflavone] | > 50 µM | > 100 µM | 55.0 ± 1.9% | > 100 µM |  | 6.7 ± 0.9 µM | 109.6 ± 1.7% | 2 ± 0.1 µM |  | > 100 µM | > 100 µM | > 100 µM | 5.7 ± 2.5% | 71.3 ± 4.7% | > 50 µM | 16.9 ± 0.3% | > 50 µM | > 50 µM
Cc1cccc(COc2cc(O)c3c(=O)cc(-c4ccccc4)oc3c2)c1 [Molecule M15, 5-hydroxy-7-((3-methylbenzyl)oxy)-2-phenyl-4h-chromen-4-one] | 45.6 ± 1.4 µM | > 50 µM | 55.3 ± 2.7% | > 50 µM | > 50 µM | > 100 µM | 46.2 ± 4.4% | > 100 µM |  | > 100 µM | > 100 µM | > 100 µM | 26.5 ± 3.3% |  | > 50 µM | 25.6 ± 0.7% |  | 
Cc1ccc2oc(-c3cccc(O)c3)cc(=O)c2c1 [Molecule M16, 3′-hydroxy-6-methylflavone] | > 50 µM | > 100 µM | 59.1 ± 1.5% | 42.1 ± 1.5 µM | > 100 µM | > 100 µM |  | 2 ± 0.1 µM |  | > 100 µM | > 50 µM | > 100 µM | 27.3 ± 3.2% | 83.5 ± 3.8% | > 50 µM |  |  | 
Cc1ccc(-c2cc(=O)c3cc(O)ccc3o2)cc1 [Molecule M17, 6-hydroxy-4′-methylflavone] | > 50 µM | > 50 µM | 50.8 ± 4.1% | 43.8 ± 0.9 µM | 40.4 ± 1.2 µM | > 100 µM |  | 0.8 ± 0.1 µM |  | > 100 µM | > 50 µM | > 50 µM | 80.9 ± 0.2% | 67.7 ± 2.1% | > 50 µM |  |  | 
O=C1O[C@H]([C@@H](O)CO)C(O)=C1O [Vitamin C, Ascorbic acid, reference compound] |  |  |  |  |  |  |  |  |  | 2.3 ± 0.2 µM | 2.2 ± 0.2 µM |  |  |  |  |  |  | 
